The text below walks through data of patent US20250129095A1, “ANNULATED 2-AMINO-3-CYANO THIOPHENES AND DERIVATIVES FOR THE TREATMENT OF CANCER” (Boehringer Ingelheim Int'l GmbH Corp., priority 2021, published 2025).

Experiment [1] relates to MKN1 cells. As to the kind of experiment: MKN1 CTG proliferation assay (120 h) (gastric cancer, wt amplified), assay 2. As to conditions: Homo sapiens, MKN-1. In kind it is cell-based. On the procedure: (§1) SAS cells (JCRB0260) are dispensed into 384-well plates, flat and clear bottom (Greiner, PNr. 781091) at a density of 300 cells per well in 60 μL DMEM:F12 (Gibco 31330-038)+10% Fetal Calf Serum (HyClone, PNr.: SH30084.03) and incubated at 37° C. in a CO2 incubator overnight The next day, compounds (10 mM stock in DMSO) are added with the ECHO acoustic liquid handler system (Beckman Coulter), including DMSO controls. Plates are incubated for 120 h, and cell viability is measured using CellTiter-Glo luminescent cell viability reagent (Promega product code G7570). Viability (stated as percent of control) is defined as relative luminescence units RLU of each well divided by the RLU of cells in DMSO controls.
(§2) MKN1 cells (JCRB0252) are dispensed into white 384-well plates, flat and white bottom (Perkin Elmer, 6007680) at a density of 500 cells per well in 40 μl RPMI (Gibco, PNr.: 21875034)+10% FCS (HyClone, PNr.: SH30084.03) (assay 1) or into black 384-well plates, flat and clear bottom (Greiner, PNr. 781091) at a density of 200 cells per well in 60 μl RPMI-1640 (Gibco #A10491)+10% FCS (HyClone, PNr.: SH30084.03)+PenStrep (Gibco, PNr.15140-122) (assay 2). […] Compounds (10 mM stock in DMSO) are added at logarithmic dose series using the HP Digital Dispenser D300 (Tecan) (assay 1) or the ECHO acoustic liquid handler system (Beckman Coulter) (assay 2), including DMSO controls and normalizing for added DMSO. Plates are incubated for 120 h, and cell viability is measured using CellTiter-Glo luminescent cell viability reagent (Promega product code G7570). Viability (stated as percent of control) is defined as relative luminescence units RLU of each well divided by the RLU of cells in DMSO controls.

The next experiment has as its target T1, KRAS (G13D)::SOS1 (Homo sapiens, UniProt P01116, C118S/G13D).
T1 construct: KRAS (G13D) 1-169, N-terminal 6His-tag for purification, cleaved off; 6His-tag (N, cleaved yes); TEV cleavage site; made in house
As to the kind of experiment: KRAS::SOS1 AlphaScreen binding assay, KRAS G13D. The source says:
This assay can be used to examine the potency with which compounds according to the invention binding to (mutated) KRAS inhibit the protein-protein interaction between SOS1 and (mutated) KRAS e.g., KRAS WT, KRAS G12C, KRAS G12D, KRAS G12V, KRAS G13D. […] Low IC50 values in this assay setting are indicative of strong inhibition of protein-protein interaction between SOS1 and KRAS:
These assays measure the inhibitory effect of compounds on KRAS mutant protein-protein interactions using the Alpha Screen technology by Perkin Elmer […]
Plates are kept at room temperature in a darkened incubator. After an additional 60 minutes incubation time the signal is measured in a PerkinElmer Envision HTS Multilabel Reader using the AlphaScreen specs from PerkinElmer. […]
As internal control known inhibitors of KRAS mutant::SOS1 interaction can be measured on each compound plate. […]
(In Alpha technology, singlet oxygen from a donor bead excites a nearby acceptor bead.)

Experiment [2] concerns MKN1 cells. As to the kind of experiment: MKN1 CTG proliferation assay (120 h) (gastric cancer, wt amplified), assay 1. As to conditions: Homo sapiens, MKN-1. In kind it is cell-based. The procedure: as §1, §2

T1 sequence (P01116 1-169 isoform P01116-2 G13D/C118S): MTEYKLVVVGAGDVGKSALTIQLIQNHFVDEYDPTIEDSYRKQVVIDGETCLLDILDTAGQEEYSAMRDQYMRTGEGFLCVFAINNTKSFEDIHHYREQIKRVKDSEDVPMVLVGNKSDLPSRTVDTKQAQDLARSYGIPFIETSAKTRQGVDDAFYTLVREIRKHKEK

The term IC50 denotes the concentration that inhibits the measured activity by half. `C[C@H](Oc1cc(Oc2cccnc2)nc(-c2onc3c2CCC[C@@]32CCCc3sc(N)c(C#N)c32)n1)[C@@H]1CCCN1C` [Example I-2] came in with an IC50 in the experiment with MKN1 cells [1] of 109 nM.
For `C[C@H](Oc1cc(OCC2(N(C)C)COC2)nc(-c2onc3c2CCC[C@@]32CCCc3sc(N)c(C#N)c32)n1)[C@@H]1CCCN1C` [Example I-8], the results for the IC50 on KRAS (G13D)::SOS1 and with MKN1 cells [1] were 8 nM and 108 nM, respectively.
As for `C[C@H](Oc1cc(Oc2cncnc2)nc(-c2noc3c2CCC[C@@]32CCCc3sc(N)c(C#N)c32)n1)[C@@H]1CCCN1C` [II-1], the IC50 in the experiment on MKN1 cells [1] amounted to 43 nM.
For `C[C@H](Oc1cc(OCCO)nc(-c2noc3c2CCC[C@@]32CCCc3sc(N)c(C#N)c32)n1)[C@@H]1CCCN1C` [II-6], in the experiment on MKN1 cells [1], it took 90 nM to reach half-maximal inhibition (IC50).
`C[C@H](Oc1cc(O[C@@H]2CNC2(C)C)nc(-c2noc3c2CCC[C@@]32CCCc3sc(N)c(C#N)c32)n1)[C@@H]1CCCN1C` [II-9] showed an IC50 in the experiment on MKN1 cells [1] of 129 nM.
In the case of `C[C@H](Oc1cc(OCC2(N(C)C)COC2)nc(-c2noc3c2CCC[C@@]32CCCc3sc(N)c(C#N)c32)n1)[C@@H]1CCCN1C` [II-22], the concentration for half-maximal inhibition (IC50) at KRAS (G13D)::SOS1 is 6 nM; in the experiment on MKN1 cells [2] it was 33 nM.
On to `COc1c(OCC2(N(C)C)COC2)nc(-c2noc3c2CCC[C@@]32CCCc3sc(N)c(C#N)c32)nc1O[C@@H](C)[C@@H]1CCCN1C` [II-25], for which the IC50 on KRAS (G13D)::SOS1 amounted to 8 nM.
As for `CO[C@@H]1C[C@@H]([C@H](C)Oc2cc(O[C@@H]3CNC3(C)C)nc(-c3noc4c3CCC[C@@]43CCCc4sc(N)c(C#N)c43)n2)N(C)C1` [II-30], in the experiment with MKN1 cells [2], the IC50 came to 223 nM.
The same measure, in the same setting: the value for `C[C@H](Oc1cc(O[C@@H]2CNC2(C)C)nc(-c2noc3c2CCC[C@@]32CCCc3sc(N)c(C#N)c32)n1)[C@@H]1C[C@@H](F)CN1C` [II-31] was 357 nM.
